Results on 17 molecules are retold here after patent US8871753B2, “Macrocyclic compounds and their use as kinase inhibitors” (Incyte Corporation, priority 2008, dated 2014).

Holding throughout (assay type): biochemical
One experiment deals with TYK2 (Homo sapiens, UniProt P29597). Nature of the experiment: TYK2 kinase inhibition (Table A1). The conditions noted are these: Table D1.
For experiment [1], the target named is T1, human JAK3 (a.a. 781-1124) (Homo sapiens, UniProt P52333).
T1 construct: JAK3 (a.a. 781-1124); His tag (N); made in house; host or cells: insect cells (baculovirus)
Nature of the experiment: In vitro JAK kinase assay (HTRF, phosphorylation of a biotinylated peptide), JAK3. As to conditions: Table D1. The method in brief: (§1)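 Phosphorylation of a biotinylated peptide by the JAK kinase domain, detected by HTRF with Eu-Py20 and SA-APC. ATP was 90 μM for JAK1, 30 μM for JAK2 and 3 μM for JAK3. Reactions ran 1 h at room temperature and were stopped with EDTA, followed by 40 min antibody binding.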

For experiment [2], the target named is T2, human JAK2 (a.a. 828-1132) (Homo sapiens, UniProt O60674).
T2 construct: JAK2 (a.a. 828-1132); His tag (N); made in house; host or cells: insect cells (baculovirus)
Nature of the experiment: In vitro JAK kinase assay (HTRF, phosphorylation of a biotinylated peptide), JAK2. As to conditions: Table D1. In outline: as §1

The target in experiment [3] is T3, human JAK1 (a.a. 837-1142) (Homo sapiens, UniProt P23458).
T3 construct: human JAK1 (a.a. 837-1142); His tag (N); made in house; host or cells: insect cells (baculovirus)
Briefly: In vitro JAK kinase assay (HTRF, phosphorylation of a biotinylated peptide), JAK1. As to conditions: Table D1; read-out: JAK1 IC50. In outline:
as §1

T3 sequence (P23458 849-1154): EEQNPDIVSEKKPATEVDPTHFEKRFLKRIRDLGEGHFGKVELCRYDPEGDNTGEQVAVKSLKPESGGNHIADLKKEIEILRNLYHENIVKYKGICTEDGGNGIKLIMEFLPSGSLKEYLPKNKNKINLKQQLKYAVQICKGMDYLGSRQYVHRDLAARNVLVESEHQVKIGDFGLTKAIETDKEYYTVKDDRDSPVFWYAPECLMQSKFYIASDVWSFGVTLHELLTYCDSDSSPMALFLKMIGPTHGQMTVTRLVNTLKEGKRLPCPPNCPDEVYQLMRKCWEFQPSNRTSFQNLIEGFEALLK
T1 sequence (P52333 781-1124): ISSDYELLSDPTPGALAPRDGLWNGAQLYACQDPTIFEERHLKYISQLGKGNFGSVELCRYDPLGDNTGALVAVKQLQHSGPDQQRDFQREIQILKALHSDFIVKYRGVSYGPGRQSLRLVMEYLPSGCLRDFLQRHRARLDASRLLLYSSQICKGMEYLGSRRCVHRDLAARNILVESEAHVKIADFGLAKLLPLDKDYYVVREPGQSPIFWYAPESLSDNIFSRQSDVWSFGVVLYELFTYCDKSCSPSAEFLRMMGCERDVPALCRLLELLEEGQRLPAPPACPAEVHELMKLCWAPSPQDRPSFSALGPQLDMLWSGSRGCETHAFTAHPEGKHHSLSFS
T2 sequence (O60674 828-1132): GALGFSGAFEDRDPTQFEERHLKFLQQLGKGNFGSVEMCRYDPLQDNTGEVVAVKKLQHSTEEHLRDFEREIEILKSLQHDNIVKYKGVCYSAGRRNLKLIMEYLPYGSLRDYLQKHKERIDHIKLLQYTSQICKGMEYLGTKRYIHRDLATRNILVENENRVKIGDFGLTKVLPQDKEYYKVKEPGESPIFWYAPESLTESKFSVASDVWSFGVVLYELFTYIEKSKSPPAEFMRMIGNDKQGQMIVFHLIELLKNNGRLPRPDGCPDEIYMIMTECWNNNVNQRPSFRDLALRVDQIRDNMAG
Chain of TYK2 (P29597 whole entry): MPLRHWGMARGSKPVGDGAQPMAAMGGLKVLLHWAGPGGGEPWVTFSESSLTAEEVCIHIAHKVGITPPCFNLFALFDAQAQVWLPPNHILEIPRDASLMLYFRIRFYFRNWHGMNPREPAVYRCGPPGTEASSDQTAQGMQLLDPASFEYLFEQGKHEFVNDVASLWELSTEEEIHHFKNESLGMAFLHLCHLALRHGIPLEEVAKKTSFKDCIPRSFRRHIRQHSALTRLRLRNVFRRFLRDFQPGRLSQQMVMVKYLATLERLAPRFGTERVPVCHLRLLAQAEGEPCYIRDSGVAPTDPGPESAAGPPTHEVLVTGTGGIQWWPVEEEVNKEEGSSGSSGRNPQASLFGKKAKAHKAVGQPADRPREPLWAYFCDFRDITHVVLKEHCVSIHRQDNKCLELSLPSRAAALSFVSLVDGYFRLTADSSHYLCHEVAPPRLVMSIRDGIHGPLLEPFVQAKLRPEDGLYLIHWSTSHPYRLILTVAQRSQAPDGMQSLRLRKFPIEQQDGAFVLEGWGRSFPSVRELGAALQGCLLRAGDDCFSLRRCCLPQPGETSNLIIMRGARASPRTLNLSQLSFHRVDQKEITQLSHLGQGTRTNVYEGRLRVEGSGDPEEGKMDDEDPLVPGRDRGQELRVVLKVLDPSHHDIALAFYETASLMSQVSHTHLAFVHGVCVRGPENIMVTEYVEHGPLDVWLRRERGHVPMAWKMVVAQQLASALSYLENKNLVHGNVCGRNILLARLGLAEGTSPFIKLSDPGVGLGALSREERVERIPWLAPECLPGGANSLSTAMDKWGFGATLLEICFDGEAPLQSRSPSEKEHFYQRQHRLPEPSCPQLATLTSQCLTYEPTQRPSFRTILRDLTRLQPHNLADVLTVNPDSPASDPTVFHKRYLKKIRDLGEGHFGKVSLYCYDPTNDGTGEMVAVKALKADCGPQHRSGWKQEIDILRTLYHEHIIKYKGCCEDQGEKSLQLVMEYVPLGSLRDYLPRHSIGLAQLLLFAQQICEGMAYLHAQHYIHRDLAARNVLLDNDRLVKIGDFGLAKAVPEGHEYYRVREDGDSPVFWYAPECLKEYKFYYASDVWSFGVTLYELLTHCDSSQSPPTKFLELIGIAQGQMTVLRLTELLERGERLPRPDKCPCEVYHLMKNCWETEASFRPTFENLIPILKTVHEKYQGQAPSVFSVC

As for `NC(=O)N1CCN(c2ccc3cc2CCc2cccc(c2)Nc2ncc(Cl)c(n2)N3)CC1` [Example D87, 4-[6-Chloro-2,4,8,22-tetraazatetracyclo[14.3.1.1(3,7).1(9,13)]docosa-1(20),3(22),4,6,9(21),10,12,16,18-nonaen-12-yl]piperazine-1-carboxamide bis(trifluoroacetate)], the IC50 against TYK2 was determined as 30 nM; in experiment [1], 34 nM; in experiment [2] it was 3.3 nM; in experiment [3] it was 18 nM.

As to `NC1CCN(c2ccc3cc2CCc2cccc(c2)Nc2ncc(Cl)c(n2)N3)C1` (centres unmarked) [Example D88, 1-[6-Chloro-2,4,8,22-tetraazatetracyclo[14.3.1.1(3,7).1(9,13)]docosa-1(20),3(22),4,6,9(21),10,12,16,18-nonaen-12-yl]pyrrolidin-3-amine tris(trifluoroacetate)], the IC50 amounted to 14 nM at TYK2, 15 nM in experiment [1], 7.7 nM in experiment [2] and 19 nM in experiment [3].

For the molecule `N#Cc1cccc(NC(=O)N2CCN(c3ccc4cc3CCc3cccc(c3)Nc3ncc(Cl)c(n3)N4)CC2)c1` [Example D89, 4-[6-Chloro-2,4,8,22-tetraazatetracyclo[14.3.1.1(3,7).1(9,13)]docosa-1(20),3(22),4,6,9(21),10,12,16,18-nonaen-12-yl]-N-(3-cyanophenyl)piperazine-1-carboxamide bis(trifluoroacetate)], the IC50 against TYK2 worked out at 53 nM; in experiment [1], 77 nM; in experiment [2] it was 6.7 nM; in experiment [3], 66 nM.

`O=C(Nc1ccc(C(F)(F)F)cc1)N1CCN(c2ccc3cc2CCc2cccc(c2)Nc2ncc(Cl)c(n2)N3)CC1` [Example D90, 4-[6-Chloro-2,4,8,22-tetraazatetracyclo[14.3.1.1(3,7).1(9,13)]docosa-1(20),3(22),4,6,9(21),10,12,16,18-nonaen-12-yl]-N-[4-(trifluoromethyl)phenyl]piperazine-1-carboxamide bis(trifluoroacetate)]: the IC50 against TYK2 came to 70 nM; in experiment [1], 108 nM; in experiment [2], 23 nM; in experiment [3], 127 nM.

On to `O=C(Nc1cccc(C(F)(F)F)c1)N1CCN(c2ccc3cc2CCc2cccc(c2)Nc2ncc(Cl)c(n2)N3)CC1` [Example D91, 4-[6-Chloro-2,4,8,22-tetraazatetracyclo[14.3.1.1(3,7).1(9,13)]docosa-1(20),3(22),4,6,9(21),10,12,16,18-nonaen-12-yl]-N-[3-(trifluoromethyl)phenyl]piperazine-1-carboxamide bis(trifluoroacetate)], for which the IC50 against TYK2 was 156 nM; in experiment [1] it was 133 nM; in experiment [2] it was 32 nM; in experiment [3], 146 nM.

For the molecule `O=C(Nc1ccccc1)N1CCN(c2ccc3cc2CCc2cccc(c2)Nc2ncc(Cl)c(n2)N3)CC1` [Example D92, 4-[6-Chloro-2,4,8,22-tetraazatetracyclo[14.3.1.1(3,7).1(9,13)]docosa-1(20),3(22),4,6,9(21),10,12,16,18-nonaen-12-yl]-N-phenylpiperazine-1-carboxamide bis(trifluoroacetate)], the IC50 on TYK2 came to 25 nM; in experiment [1], 36 nM; in experiment [2], 4.9 nM; in experiment [3], 16 nM.

Turning to `N#Cc1ccc(NC(=O)N2CCN(c3ccc4cc3CCc3cccc(c3)Nc3ncc(Cl)c(n3)N4)CC2)cc1` [Example D93, 4-[6-Chloro-2,4,8,22-tetraazatetracyclo[14.3.1.1(3,7).1(9,13)]docosa-1(20),3(22),4,6,9(21),10,12,16,18-nonaen-12-yl]-N-(4-cyanophenyl)piperazine-1-carboxamide bis(trifluoroacetate)], the IC50 was found to be 71 nM at TYK2, 69 nM in experiment [1], 14 nM in experiment [2] and 46 nM in experiment [3].

Regarding `O=C(c1ccccc1)N1CCN(c2ccc3cc2CCc2cccc(c2)Nc2ncc(Cl)c(n2)N3)CC1` [Example D94, 12-(4-Benzoylpiperazin-1-yl)-6-chloro-2,4,8,22-tetraazatetracyclo[14.3.1.1(3,7).1(9,13)]docosa-1(20),3(22),4,6,9(21),10,12,16,18-nonaene bis(trifluoroacetate)], the IC50 is 160 nM against TYK2, 138 nM in experiment [1], 43 nM in experiment [2] and 79 nM in experiment [3].

Consider `N#Cc1ccc(C(=O)N2CCN(c3ccc4cc3CCc3cccc(c3)Nc3ncc(Cl)c(n3)N4)CC2)cc1` [Example D95, 4-({4-[6-Chloro-2,4,8,22-tetraazatetracyclo[14.3.1.1(3,7).1(9,13)]docosa-1(20),3(22),4,6,9(21),10,12,16,18-nonaen-12-yl]piperazin-1-yl}carbonyl)benzonitrile bis(trifluoroacetate)], for which the IC50 on TYK2 was 106 nM; in experiment [1] it was 87 nM; in experiment [2], 15 nM; in experiment [3], 25 nM.

For the molecule `O=C(c1ccc(C(F)(F)F)cc1)N1CCN(c2ccc3cc2CCc2cccc(c2)Nc2ncc(Cl)c(n2)N3)CC1` [Example D96, 6-Chloro-12-{4-[4-(trifluoromethyl)benzoyl]piperazin-1-yl}-2,4,8,22-tetraazatetracyclo[14.3.1.1(3,7).1(9,13)]docosa-1(20),3(22),4,6,9(21),10,12,16,18-nonaene bis(trifluoroacetate)], the IC50 on TYK2 was found to be 195 nM; in experiment [1], 149 nM; in experiment [2], 49 nM; in experiment [3], 112 nM.

Consider `O=C(C[C@@H]1CCN(C(=O)Nc2ccccc2F)C1)Nc1ccc2cc1CCc1cncc(c1)Nc1ncc(Cl)c(n1)N2` [Example D135, (3S)-3-(2-{[6-Chloro-2,4,8,18,22-pentaazatetracyclo[14.3.1.1(3,7).1(9,13)]docosa-1(20),3(22),4,6,9(21),10,12,16,18-nonaen-12-yl]amino}-2-oxoethyl)-N-(2-fluorophenyl)pyrrolidine-1-carboxamide bis(trifluoroacetate)], for which the IC50 against TYK2 is more than 1000 nM; in experiment [1], more than 1000 nM; in experiment [2], 314 nM; in experiment [3], 60 nM.

As to `O=C(C[C@H]1CCN(c2nc3ccccc3s2)C1)Nc1ccc2cc1CCc1cncc(c1)Nc1ncc(Cl)c(n1)N2` [Example D136, 2-[(3R)-1-(1,3-Benzothiazol-2-yl)pyrrolidin-3-yl]-N-[6-chloro-2,4,8,18,22-pentaazatetracyclo[14.3.1.1(3,7).1(9,13)]docosa-1(20),3(22),4,6,9(21),10,12,16,18-nonaen-12-yl]acetamide tris(trifluoroacetate)], the IC50 against TYK2 was 106 nM; in experiment [1], more than 1000 nM; in experiment [2], 53 nM; in experiment [3], 6.6 nM.

Take `O=C(C[C@@H]1CCN(c2nc3ccccc3s2)C1)Nc1ccc2cc1CCc1cncc(c1)Nc1ncc(Cl)c(n1)N2` [Example D137, 2-[(3S)-1-(1,3-Benzothiazol-2-yl)pyrrolidin-3-yl]-N-[6-chloro-2,4,8,18,22-pentaazatetracyclo[14.3.1.1(3,7).1(9,13)]docosa-1(20),3(22),4,6,9(21),10,12,16,18-nonaen-12-yl]acetamide tris(trifluoroacetate)]: the IC50 was 66 nM against TYK2, more than 1000 nM in experiment [1], 15 nM in experiment [2] and 1.6 nM in experiment [3].

As for `O=C(CC1CN(c2nc3ccccc3s2)C1)Nc1ccc2cc1CCc1cncc(c1)Nc1ncc(Cl)c(n1)N2` [Example D138, 2-[1-(1,3-Benzothiazol-2-yl)azetidin-3-yl]-N-[6-chloro-2,4,8,18,22-pentaazatetracyclo[14.3.1.1(3,7).1(9,13)]docosa-1(20),3(22),4,6,9(21),10,12,16,18-nonaen-12-yl]acetamide tris(trifluoroacetate)], the IC50 was 500 nM against TYK2, more than 1000 nM in experiment [1], 96 nM in experiment [2] and 12 nM in experiment [3].

With `O=C(C[C@H]1CCN(c2nc3cccnc3o2)C1)Nc1ccc2cc1CCc1cncc(c1)Nc1ncc(Cl)c(n1)N2` [Example D139, N-[6-Chloro-2,4,8,18,22-pentaazatetracyclo[14.3.1.1(3,7).1(9,13)]docosa-1(20),3(22),4,6,9(21),10,12,16,18-nonaen-12-yl]-2-[(3R)-1-[1,3]oxazolo[5,4-b]pyridin-2-ylpyrrolidin-3-yl]acetamide tris(trifluoroacetate)], the IC50 was 282 nM against TYK2, more than 1000 nM in experiment [1], 159 nM in experiment [2] and 12 nM in experiment [3].

As for `O=C(C[C@@H]1CCN(c2nc3cccnc3o2)C1)Nc1ccc2cc1CCc1cncc(c1)Nc1ncc(Cl)c(n1)N2` [Example D140, N-[6-Chloro-2,4,8,18,22-pentaazatetracyclo[14.3.1.1(3,7).1(9,13)]docosa-1(20),3(22),4,6,9(21),10,12,16,18-nonaen-12-yl]-2-[(3S)-1-[1,3]oxazolo[5,4-b]pyridin-2-ylpyrrolidin-3-yl]acetamide tris(trifluoroacetate)], the IC50 against TYK2 is 226 nM; in experiment [1] it was more than 1000 nM; in experiment [2], 83 nM; in experiment [3], 8.6 nM.

On to `O=C(CC1CN(c2nc3cccnc3o2)C1)Nc1ccc2cc1CCc1cncc(c1)Nc1ncc(Cl)c(n1)N2` [Example D141, N-[6-Chloro-2,4,8,18,22-pentaazatetracyclo[14.3.1.1(3,7).1(9,13)]docosa-1(20),3(22),4,6,9(21),10,12,16,18-nonaen-12-yl]-2-(1-[1,3]oxazolo[5,4-b]pyridin-2-ylazetidin-3-yl)acetamide tris(trifluoroacetate)], for which the IC50 against TYK2 is 262 nM; in experiment [1], more than 1000 nM; in experiment [2], 106 nM; in experiment [3] it was 9 nM.
